The text below walks through data of US12441679B2, “Acrylamide-substituted indane compounds and therapeutic use thereof” (Sanofi, priority 2020, dated 2025).

This assay relates to YAP1-TEAD and TAZ-TEAD activity (TEAD responsive promoter element). Description: TEAD-Luciferase Reporter Assay (8XGTIIC-Luciferase construct stably integrated in tumor cell lines). The class given is cell-based, human. The settings on record: Homo sapiens; 8XGTIIC-Luciferase reporter in tumor cell lines, 48 hrs compound treatment, 10 doses 1-10000 nM. The source says:
TEAD-Luciferase Reporter Assay
Luciferase-based gene reporter assays were used, employing the TEAD responsive promoter element that are stably integrated to different human tumor cell lines in order to monitor YAP1-TEAD and TAZ-TEAD activity and to study YAP1/TAZ-TEAD activity modulation by small molecule compounds. Luciferase-based gene reporter assays employing the GAPDH promoter element and stably integrated to different human tumor cell lines are used as counter screen control cell lines.
Tumor cell lines with stable integration of the 8XGTIIC-Luciferase construct (Dupont et al., Nature 2011) or the GAPDH-Luciferase control plasmid, are seeded in culture medium in 96-well plates at a density of 8000 cells/well. Following an overnight incubation in a 37° C., 5% CO2 growth chamber, cells are treated with compounds described above at 10 doses ranging between 1 and 10000 nM for 48 hrs. After compound incubation, cells are lysed with Bright-Glo Luciferase Assay System (Promega E2620) and luciferase activity is measured using a luminescent plate reader.
The inhibitory activity of the compounds with respect to luciferase activity is given by the concentration which inhibits 50% of activity of non-treated cells. IC50s are determined with a nonlinear regression model on XLfit software analysis (IDBS, UK).
In general terms: Reporter assays use an easily measured gene product as a stand-in for the process of interest.
The IC50 is the concentration that inhibits the measured activity by half. High values mean a need for much substance, low ones inhibition by little substance. In the case of `C=CC(=O)Nc1ccc2c(c1)[C@@H](Nc1cccc(C(F)(F)F)c1)[C@H](O)C2` (racemic) [Example 96, N-[rac-(2R,3R)-2-hydroxy-3-[3-(trifluoromethyl)anilino]-2,3-dihydro-1H-inden-5-yl]acrylamide], it took 1980 nM to reach half-maximal inhibition (IC50).

In turn, `C=CC(=O)Nc1ccc2c(c1)CC(N[C@H]1CC[C@@H](C(F)(F)F)CC1)C2` (relative stereo) [Example 26, N-(2-(((cis)-4-(trifluoromethyl)cyclohexyl)amino)-2,3-dihydro-1H-inden-5-yl)acrylamide] showed an IC50 greater than 10000 nM.

`C=CC(=O)Nc1ccc2c(c1)CC(N[C@H]1CC[C@H](C(F)(F)F)CC1)C2` (relative stereo) [Example 27, N-(2-(((trans)-4-(trifluoromethyl)cyclohexyl)amino)-2,3-dihydro-1H-inden-5-yl)acrylamide] had a half-maximal inhibitory concentration (IC50) greater than 10000 nM.

In turn, `C=CC(=O)Nc1ccc2c(c1)C(O[C@H]1CC[C@H](C(F)(F)F)CC1)CC2` (relative stereo) [Example 36, N-(3-(((trans)-4-(trifluoromethyl)cyclohexyl)oxy)-2,3-dihydro-1H-inden-5-yl)acrylamide] had an IC50 of 99 nM.

Turning to `C=CC(=O)Nc1ccc2c(c1)[C@@H](OC)C[C@H]2Nc1cccc(C(F)(F)F)c1` (relative stereo) [Example 94, N-[(cis)-3-methoxy-1-[3-(trifluoromethyl)anilino]-2,3-dihydro-1H-inden-5-yl]acrylamide], the IC50 was determined as 395 nM.

As to `C=CC(=O)Nc1ccc2c(c1)C[C@@H](O)[C@@H]2Nc1cccc(C(F)(F)F)c1` (relative stereo) [Example 95, N-[(trans)-2-hydroxy-1-[3-(trifluoromethyl)anilino]-2,3-dihydro-1H-inden-5-yl]acrylamide], the IC50 amounted to 653 nM. This IC50 lies about 1.7-fold higher than the previous one.

As to `C=CC(=O)Nc1ccc2c(c1)C[C@@H](Nc1cccc(F)c1)C2` (single isomer, unassigned) [Example 48], half-maximal inhibition (IC50) was put at 69 nM.

The compound `C=CC(=O)Nc1ccc2c(c1)C[C@H](Nc1cccc(F)c1)C2` (single isomer, unassigned) [Example 49] had an IC50 of 105 nM.

`C=CC(=O)Nc1ccc2c(c1)C[C@H](Nc1cccc(C(F)(F)F)c1)C2` (single isomer, unassigned) [Example 50] returned an IC50 of 76 nM. The IC50 values of the last two compounds are within 1.5-fold of each other.

In turn, `C=CC(=O)Nc1ccc2c(c1)C[C@@H](Nc1cccc(C(F)(F)F)c1)C2` (single isomer, unassigned) [Example 51] returned an IC50 of 4330 nM.

With `C=CC(=O)Nc1ccc2c(c1)CC[C@H]2Nc1ccc(C(F)(F)F)cc1` (single isomer, unassigned) [Example 55], the midpoint of inhibition, the IC50, lay at 38 nM.

Turning to `C=CC(=O)Nc1ccc2c(c1)CC[C@@H]2Nc1ccc(C(F)(F)F)cc1` (single isomer, unassigned) [Example 56], half-maximal inhibition (IC50) was put at 44 nM.

Compound `C=CC(=O)Nc1ccc2c(c1)CC[C@@H]2Nc1cc(C(F)(F)F)ccn1` (single isomer, unassigned) [Example 57] showed an IC50 of 134 nM. Compared with the last compound, the IC50 is about 3-fold higher.

Take `C=CC(=O)Nc1ccc2c(c1)CC[C@H]2Nc1cc(C(F)(F)F)ccn1` (single isomer, unassigned) [Example 58]: the IC50 is 216 nM.

`C=CC(=O)Nc1ccc2c(c1)CC[C@@H]2Oc1cccc(C(F)(F)F)c1` (single isomer, unassigned) [Example 84] showed an IC50 of 153 nM.

In the case of `C=CC(=O)Nc1ccc2c(c1)CC[C@H]2Oc1cccc(C(F)(F)F)c1` (single isomer, unassigned) [Example 85], the half-inhibitory concentration (IC50) was 42 nM. Against the preceding compound, the IC50 is about 3.6-fold lower.

Consider `C=CC(=O)Nc1ccc2c(c1)[C@@H](Oc1ccc(C(F)(F)F)cc1)CC2` (single isomer, unassigned) [Example 86], for which inhibition was half-maximal at 134 nM (IC50).

`C=CC(=O)Nc1ccc2c(c1)[C@H](Oc1ccc(C(F)(F)F)cc1)CC2` (single isomer, unassigned) [Example 87] yielded an IC50 of 28 nM.

For `C=CC(=O)Nc1ccc2c(c1)CCC2Nc1cccc(C(F)(F)F)c1` (stereo not drawn) [Example 1, N-(1-((3-(trifluoromethyl)phenyl)amino)-2,3-dihydro-1H-inden-5-yl)acrylamide], the IC50 was 72 nM. Compared with the last compound, the IC50 is about 2.6-fold higher.

Compound `C=CC(=O)N(C)c1ccc2c(c1)CCC2Nc1cccc(C(F)(F)F)c1` (stereo not drawn) [Example 4, N-methyl-N-(1-((3-(trifluoromethyl)phenyl)amino)-2,3-dihydro-1H-inden-5-yl)acrylamide] yielded an IC50 of 142 nM. This IC50 lies about 2-fold higher than the previous one.

Turning to `C=CC(=O)Nc1ccc2c(c1)CCC2Nc1ccc(F)cc1` (stereo not drawn) [Example 5, N-(1-((4-fluorophenyl)amino)-2,3-dihydro-1H-inden-5-yl)acrylamide], half-maximal inhibition (IC50) was put at 29 nM.

Compound `C=CC(=O)Nc1ccc2c(c1)CC[C@H]2Nc1ccc(F)cc1` [Example 7, (R)—N-(1-((4-fluorophenyl)amino)-2,3-dihydro-1H-inden-5-yl)acrylamide] returned an IC50 of 28 nM.

Consider `C=CC(=O)Nc1ccc2c(c1)CCC2Nc1cccc(F)c1` (stereo not drawn) [Example 8, N-(1-((3-fluorophenyl)amino)-2,3-dihydro-1H-inden-5-yl)acrylamide], for which half-maximal inhibition (IC50) required 132 nM.

`C=CC(=O)Nc1ccc2c(c1)CCC2Nc1cc(F)cc(F)c1` (stereo not drawn) [Example 9, N-(1-((3,5-difluorophenyl)amino)-2,3-dihydro-1H-inden-5-yl)acrylamide] yielded an IC50 of 167 nM.

The compound `C=CC(=O)Nc1ccc2c(c1)CCC2Nc1ccc(C(F)(F)F)cc1` (stereo not drawn) [Example 10, N-(1-((4-(trifluoromethyl)phenyl)amino)-2,3-dihydro-1H-inden-5-yl)acrylamide] had an IC50 of 44 nM.

`C=CC(=O)Nc1ccc2c(c1)C(Nc1cccc(C(F)(F)F)c1)CC2` (stereo not drawn) [Example 11, N-(3-((3-(trifluoromethyl)phenyl)amino)-2,3-dihydro-1H-inden-5-yl)acrylamide]: the IC50 came to 37 nM.

As to `C=CC(=O)Nc1ccc2c(c1)C(Nc1ccc(C(F)(F)F)cc1)CC2` (stereo not drawn) [Example 12, N-(3-((4-(trifluoromethyl)phenyl)amino)-2,3-dihydro-1H-inden-5-yl)acrylamide], the IC50 was 55 nM.

Regarding `C=CC(=O)Nc1ccc2c(c1)C(Nc1ccc(F)c(F)c1)CC2` (stereo not drawn) [Example 13, N-(3-((3,4-difluorophenyl)amino)-2,3-dihydro-1H-inden-5-yl)acrylamide], the IC50 worked out at 37 nM. The IC50 values of the last two compounds are within 1.5-fold of each other.

In turn, `C=CC(=O)Nc1ccc2c(c1)C(Nc1cccc(F)c1)CC2` (stereo not drawn) [Example 14, N-(3-((3-fluorophenyl)amino)-2,3-dihydro-1H-inden-5-yl)acrylamide] returned a 50% inhibitory concentration (IC50) of 54 nM. This IC50 and that of the compound before are within 1.5-fold of each other.

The compound `C=CC(=O)Nc1ccc2c(c1)C(Nc1ccc(F)cc1)CC2` (stereo not drawn) [Example 15, N-(3-((4-fluorophenyl)amino)-2,3-dihydro-1H-inden-5-yl)acrylamide] showed a half-maximal inhibitory concentration (IC50) of 48 nM.

The compound `C=CC(=O)Nc1ccc2c(c1)CCC2Nc1ccc(F)c(F)c1` (stereo not drawn) [Example 16, N-(1-((3,4-difluorophenyl)amino)-2,3-dihydro-1H-inden-5-yl)acrylamide] yielded a 50% inhibitory concentration (IC50) of 38 nM. The IC50 values of the last two compounds are within 1.5-fold of each other.

For the compound `C=CC(=O)Nc1ccc2c(c1)CCC2Nc1cccc(OC)c1` (stereo not drawn) [Example 17, N-(1-((3-methoxyphenyl)amino)-2,3-dihydro-1H-inden-5-yl)acrylamide], the IC50 was greater than 10000 nM.

Compound `C=CC(=O)Nc1ccc2c(c1)CCC2Nc1cccc(C)c1` (stereo not drawn) [Example 18, N-(1-(m-tolylamino)-2,3-dihydro-1H-inden-5-yl)acrylamide] registered a half-inhibitory concentration (IC50) of 213 nM.

Compound `C=CC(=O)Nc1ccc2c(c1)CCC2Nc1ccc(F)nc1` (stereo not drawn) [Example 19, N-(1-((6-fluoropyridin-3-yl)amino)-2,3-dihydro-1H-inden-5-yl)acrylamide] registered an IC50 of 503 nM.

`C=CC(=O)Nc1ccc2c(c1)CCC2Nc1ccc(C(F)(F)F)nc1` (stereo not drawn) [Example 20, N-(1-((6-(trifluoromethyl)pyridin-3-yl)amino)-2,3-dihydro-1H-inden-5-yl)acrylamide]: the IC50 came to 358 nM.

In the case of `C=CC(=O)Nc1ccc2c(c1)CCC2Nc1ccc(F)cn1` (stereo not drawn) [Example 21, N-(1-((5-fluoropyridin-2-yl)amino)-2,3-dihydro-1H-inden-5-yl)acrylamide], the IC50 stood at 262 nM. This IC50 and that of the compound before are within 1.5-fold of each other.

The compound `C=CC(=O)Nc1ccc2c(c1)CCC2Nc1cccc(C(=O)OC)c1` (stereo not drawn) [Example 22, methyl-3-((5-acrylamido-2,3-dihydro-1H-inden-1-yl)amino)benzoate] yielded an IC50 greater than 10000 nM.

Compound `C=CC(=O)Nc1ccc2c(c1)C(NCc1ccccc1)CC2` (stereo not drawn) [Example 23, N-(3-(benzylamino)-2,3-dihydro-1H-inden-5-yl)acrylamide] came in with an IC50 of 9530 nM. This counts as single-digit micromolar.

For `C=CC(=O)Nc1ccc2c(c1)CCC2NCc1cccc(C(F)(F)F)c1` (stereo not drawn) [Example 24, N-(1-((3-(trifluoromethyl)benzyl)amino)-2,3-dihydro-1H-inden-5-yl)acrylamide], the IC50 was determined as 8040 nM.

`C=CC(=O)Nc1ccc2c(c1)CCC2NCc1ccc(C(F)(F)F)cc1` (stereo not drawn) [Example 25, N-(1-((4-(trifluoromethyl)benzyl)amino)-2,3-dihydro-1H-inden-5-yl)acrylamide] gave an IC50 of 8240 nM.

`C=CC(=O)Nc1ccc2c(c1)CC(NC1CCC(F)(F)CC1)C2` (stereo not drawn) [Example 28, N-(2-((4,4-difluorocyclohexyl)amino)-2,3-dihydro-1H-inden-5-yl)acrylamide] had an IC50 of 4020 nM.

The compound `C=CC(=O)Nc1ccc2c(c1)CC(NCCCC(F)(F)F)C2` (stereo not drawn) [Example 29, N-(2-((4,4,4-trifluorobutyl)amino)-2,3-dihydro-1H-inden-5-yl)acrylamide] yielded an IC50 greater than 10000 nM.
